According to patent publication US20240165072A1, “PHARMACEUTICAL COMPOSITION FOR ALLEVIATING OR TREATING HAIR LOSS THROUGH INFLAMMATION AMELIORATION OF HUMAN DERMAL PAPILLA CELLS AND PERIPHERAL CELLS AND INHIBITION OF 5A-REDUCTASE EXPRESSION” (BEN'S LAB. CO. LTD., priority 2021, published 2024):
Converted amounts (≈) assume the structure as drawn. Like-named read-outs stand apart in the source and are kept apart here.

Key:
[1] = test system: nitric oxide production in RAW 264.7 cells; experiment: Inhibitory effect on nitric oxide production in macrophages (Griess); assay type: cell-based, mouse; settings: LPS 1 μg/ml, RAW 264.7 (FIG. 2); for inhibition of nitric oxide production, rank among the three samples: compared with kaempferol
Description: RAW 264.7 cells, which is a mouse macrophage cell line, were dispensed in a 24-well plate at a concentration of 2×10^5 cells/well, and cultured in an incubator at 37° C. under 5% CO2 for 24 hours. Epigallocatechin gallate (EGCG), genistein, and kaempferol, which were samples dissolved in DMSO, were added thereto according to the concentrations. At this time, the final concentration of DMSO was adjusted to 0.1%. After 30 minutes, LPS (lipopolysaccharide), which is an inflammation inducing substance, was added at a concentration of 1 μg/ml. After that, these were cultured in an incubator at 37° C. under 5% CO2 for 24 hours.
To quantify nitric oxide, 50 ? of Griess reagent A (5% phosphoric acid, 1% sulfanilamide) was added to 50 ? of the cell culture medium, and then the mixture was allowed to stand in a dark place for 5 minutes. 50 ? of Griess reagent B (0.1% N-(1-naphthyl)ethylenediamine dihydrochloride) was further added thereto, and allowed to react in a dark place for 5 minutes. The absorbance of this reactant was measured at 540 nm, which was compared with the standard curve to calculate the final concentration of nitrogen monoxide. A standard curve was obtained by reacting in the same manner as above using sodium nitrite instead of the cell culture medium and then measuring the absorbance.

[2] = test system: IL-6 release in mouse macrophages RAW 264.7 cells; experiment: Inhibition of IL-6 secretion in macrophages (ELISA); assay type: cell-based; settings: for IC50: Mus musculus, RAW264.7, LPS 100 ng/ml
Description: (§1) Mouse macrophage RAW 264.7 was dispensed into a 24-well plate at a concentration of 2×10^5 cells/well, and cultured in an incubator at 37° C. under 5% CO2 using a DMEM medium for 24 hours, and then samples were added according to the concentrations. Thirty minutes after addition of the sample, LPS (100 ng/ml) was added and cultured at 37° C. for 20 hours to collect the culture medium. The secreted IL-6 and TNF-α were respectively quantified using Mouse IL-6 ELISA kit (Invitrogen, Thermo Scientific) and Mouse TNF-α ELISA kit (Invitrogen, Thermo Scientific).

[3] = test system: TNF-α release in mouse macrophages RAW 264.7 cells; experiment: Inhibition of TNF-α secretion in macrophages (ELISA); assay type: cell-based; settings: for IC50: Mus musculus, RAW264.7, LPS 100 ng/ml
Description: as §1

5α-reductase type II = experiment: Inhibition of 5α-reductase type II expression in human dermal papilla cells (Western blot); assay type: cell-based; settings: HFDPC; testosterone 10 μM; 72 hours; samples 10, 20 μg/ml; order genistein, kaempferol, EGCG (FIG. 4)
Description: The medium was then removed, and cells were collected by washing with PBS to extract proteins. To extract a protein, a lysis buffer for radio immunoprecipitation assay (RIPA) (sodium chloride 150 mM, sodium dodecyl sulfate (SDS) 0.1%, tris-hydrochloric acid (Tris-HCl: pH 7.5) 50 mM, ethylenediaminetetraacetic acid (EDTA) 2 mM, sodium deoxycholate 0.5%, Triton X-100 1%) was added and reacted, and then centrifuged at 10,000 rpm and 4° C. for 15 minutes to collect the supernatant. Then, the absorbance was measured at 595 nm to determine the protein concentration of each sample. These cell protein samples were mixed with sodium dodecyl sulfate (SDS) and a stain, and subjected to electrophoresis on a 12% SDS polyacrylamide gel.

[4] = test system: histamine release in RBL-2H3 cells; experiment: Inhibition of histamine release in RBL-2H3 cells (Compound 48/80); assay type: cell-based, rat
Description: White rat basophil leukemia cells (RBL-2H3) were dispensed into a 24-well plate at a concentration of 1×10^5 cells/well, and cultured for 24 hours. Samples were added according to the concentrations. After 1 hour, Compound 48/80 (1 mg/ml), which triggers an allergic reaction, was added and cultured for 20 minutes. The well plate was allowed to stand in a refrigerator at 4° C. for 10 minutes, and then the medium was collected and the amount of histamine released into the medium was quantified using the Histamine ELISA kit (Neogen).

[5] = DPPH radical scavenging ability; assay type: biochemical; settings: for DPPH radical scavenging ability (IC50): DPPH 300 μM, 30 minutes
Description: 100 ? l sample and the same amount of DPPH (2,2-diphenyl-1-picrylhydrazyl, 300 μM) solution were mixed in a 96-well plate, and reacted in a dark place for 30 minutes, and the absorbance was measured at 520 nm. The same amount of ethanol was reacted instead of the sample, and the blank value was calculated according to the following Equation.
DPPH radical scavenging ability (%)=[1−(A−B)/C]×100
wherein, A is the absorbance of the sample-added group (DPPH+sample); B is the absorbance of the ethanol-added group (sample+ethanol) instead of DPPH; and C is the absorbance of the ethanol-added group (DPPH+ethanol) instead of the sample.

[6] = ABTS radical scavenging ability; assay type: biochemical; settings: for ABTS radical scavenging ability (IC50): 10 minutes, absorbance 734 nm
Description: The ABTS radical scavenging ability was calculated according to the following Equation.
ABTS radical scavenging ability (%)=[1−(AB)/C]×100
wherein, A is the absorbance of the sample-added group (ABTS+sample); B is the absorbance of the distilled water-added group (sample+distilled water) instead of ABTS; and C is the absorbance of the ethanol-added group (ABTS+ethanol) instead of the sample.

cyclooxygenase-2 (COX-2) = experiment: COX-2 expression inhibition in LPS-stimulated RAW 264.7 (Western blot); assay type: cell-based, mouse; settings: 25 μg/ml, LPS 100 ng/ml, Western blot (FIG. 1)
Description: (§2) Mouse macrophage RAW 264.7 was dispensed into a 6-well plate at a concentration of 6×10^5 cells/well (number of cells per well), and cultured in an incubator at 37° C. under 5% CO2 using a DMEM Dulbecco's Modified Eagle's Medium (Sigma-Aldrich, Cat. No. D7777) for 24 hours, and then samples were added according to the concentrations.
(§3) Thirty minutes after the addition of the sample, lipopolysaccharide (LPS, 100 ng/ml) was added, and further cultured for 20 hours. After that, the medium was removed, washed with phosphate buffered saline (PBS) to collect the cells. In order to extract the protein, a lysis buffer for radioimmunoprecipitation assay (RIPA; sodium chloride 150 mM, sodium dodecyl sulfate (SDS) 0.1%, tris-hydrochloric acid (Tris-HCl: pH 7.5) 50 mM, ethylenediaminetetraacetic acid (EDTA) 2 mM, sodium deoxycholate 0.5%, Triton X-100 1%) was added and reacted, and then centrifuged at 10,000 rpm and 4° C. for 15 minutes to obtain the supernatant. The absorbance of the supernatant was then measured at 595 nm to determine the protein concentration of each sample. Then, the cell protein sample was mixed with sodium dodecyl sulfate (SDS) and a stain, and subjected to electrophoresis on a 12% SDS polyacrylamide gel. […]

[7] = test system: IL-6 secretion in human follicle dermal papilla cells (HFDPC); settings: TST or DHT 10 μM, 72 hours (FIG. 3)
Description: Human follicle dermal papilla cells (HFDPC) were dispensed into a 12-well plate at a concentration of 1×10^5 cells/well, and cultured for 24 hours. After that, the medium was replaced with Dulbecco's modified eagle's medium (DMEM) containing no fetal bovine serum (FBS), and subjected to starvation for 24 hours, and then samples were added according to the concentrations (2, 5, 10, 20 μg/ml). […] Then, the medium was collected, and IL-6 secreted in the medium was quantified using a Human IL-6 ELISA kit (Invitrogen, Thermo Scientific).

[8] = test system: inducible nitric oxide synthase (iNOS); experiment: iNOS expression inhibition in LPS-stimulated RAW 264.7 (Western blot); assay type: cell-based, mouse; settings: 25 μg/ml, LPS 100 ng/ml, Western blot (FIG. 1)
Description: as §2, §3

5-lipoxygenase (5-LO) = experiment: Inhibition of 5-lipoxygenase (5-LO) expression in RBL-2H3 (Western blot); assay type: cell-based, rat; settings: Compound 48/80 1 mg/ml (FIG. 5)
Description: White rat basophilic leukemia cells (RBL-2H3) were dispensed into a 6-well plate at a concentration of 3×10^5 cells/well, and cultured in an incubator at 37° C. under 5% CO2 using a DMEM medium for 24 hours. Samples were added according to the concentrations, cultured for 24 hours, and then Compound 48/80 (1 mg/ml), which is substance that induces an allergic reaction, was added, and cultured for 1 hour. After that, the medium was removed, and washed with PBS to collect the cells, and then proteins were extracted. To extract protein, lysis buffer for radioimmunoprecipitation assay (RIPA; sodium chloride 150 mM, sodium dodecyl sulfate (SDS) 0.1%, tris-hydrochloric acid (Tris-HCl: pH 7.5) 50 mM, ethylenediaminetetraacetic acid (EDTA) 2 mM, sodium deoxycholate 0.5%, Triton X-100 1%) was added and reacted, and then centrifuged at 10,000 rpm and 4° C. for 15 minutes to take the supernatant. The absorbance thereof was then measured at 595 nm to determine the protein concentration of each sample. Then, the cell protein sample was mixed with sodium dodecyl sulfate (SDS) and a stain, and subjected to electrophoresis on a 12% SDS polyacrylamide gel. […]

[9] = Rattus norvegicus, Compound 48/80 1 mg/ml
[10] = highest inhibitory effect among EGCG, genistein, kaempferol

| Structure (SMILES) | inhibition of nitric oxide production, rank among the three samples [1] | inhibition of 5α-reductase type II expression (5α-reductase type II) | DPPH radical scavenging ability (IC50) [5] [µg/mL] | ABTS radical scavenging ability (IC50) [6] [µg/mL] | IC50 ([2]; 20 hours) [µg/mL] | IC50 ([3]; 20 hours) [µg/mL] | IC50 [4, 9] [µg/mL] | also measured |
| --- | --- | --- | --- | --- | --- | --- | --- | --- |
| O=C(O[C@@H]1Cc2c(O)cc(O)cc2O[C@@H]1c1cc(O)c(O)c(O)c1)c1cc(O)c(O)c(O)c1 [Epigallocatechin gallate (EGCG), Epigallocatechin gallate] | next most inhibitory | effectively inhibited | 3.40 | 1.65 |  |  |  | IL-6 (IC50) ([2]; LPS 100 ng/ml, 20 hours): 98.99 ± 10.87 µg/mL; TNF-α (IC50) ([3]; LPS 100 ng/ml, 20 hours): 83.68 ± 3.45 µg/mL; histamine release inhibition (IC50) ([4]; Compound 48/80 1 mg/ml): 50.0 ± 9.80 µg/mL |
| O=c1c(-c2ccc(O)cc2)coc2cc(O)cc(O)c12 [Genistein] | slightly decreased the inhibitory power | effectively inhibited |  |  | 8.92 ± 0.08 (≈ 33 µM) | 14.99 ± 0.11 (≈ 55.5 µM) | > 1000 | inhibition of COX-2 expression (cyclooxygenase-2 (COX-2)): mostly inhibited the expression of COX-2; inhibition at 1000 µg/mL ([4]; Rattus norvegicus, at 1000 μg/ml): 46%; DPPH radical scavenging ability ([5]; at 100 ppm): 5.18% at 100 ppm; ABTS radical scavenging ability ([6]; at 100 ppm): 5.29% at 100 ppm; inhibition of the release of IL-6 by DHT or TST ([7]; 5 μg/ml): almost completely inhibited |
| O=c1c(O)c(-c2ccc(O)cc2)oc2cc(O)cc(O)c12 [Kaempferol] |  | effectively inhibited | 11.66 ± 0.30 | 6.18 ± 0.08 | 5.93 ± 0.07 (≈ 20.7 µM) | 13.6 ± 0.72 (≈ 47.4 µM) | 0.2 ± 0.02 (≈ 0.699 µM) | inhibition of iNOS expression [8]: inhibited the expression of iNOS to the control (CON) levels; inhibition of nitric oxide production ([1]; 20 μg/ml): inhibited almost to the control level; inhibition of IL-6 in macrophages (in words) [2, 10]: effectively inhibited; inhibition of TNF-α in macrophages (in words) [3, 10]: effectively inhibited; inhibition of 5-LO expression (5-lipoxygenase (5-LO)): effectively inhibits 5-LO expression at the lowest concentration; inhibition at 0.2 µg/mL ([4]; Rattus norvegicus, at 0.2 μg/ml): > 50%; inhibition of the release of IL-6 by DHT or TST ([7]; 10 μg/ml): almost completely inhibited |
